Columns and labels:
[1] = SDS-PAGE analysis of glutaraldehyde cross-linked samples (oligomer formation and storage stability); format: physicochemical
Procedure: The soluble Aβ oligomers were cross-linked with glutaraldehyde, incubated for 10 minutes at room temperature and then quenched with 1M glycine, 1M Tris-HCl pH 7.5. Cross-linked samples were then diluted to a final concentration of 0.02 μg/μL, in Tris-glycine SDS sample buffer. For analysis, 0.28 μg Aβ (nominal concentration) in either monomeric or oligomeric form was separated by electrophoresis at 125V for about 100 minutes using a 4% to 20% tris-glycine gel (Invitrogen, Carlsbad, Calif.). Gels were then silver stained to visualize the size distribution of the soluble Aβ oligomers. For glutaraldehyde concentration optimization, HFIP-dried Aβ42 or HFIP-dried Aβ40 was solubilized in DMSO (20 mg/mL, 4.4 mM), added to 50 mM phosphate, pH 9.0, to a final concentration of 1.8 mg/mL (400 μM) and incubated at 4° C. overnight, protected from light. […]
As set forth above in Examples 1-4, Aβ42 forms soluble Aβ oligomers in 50 mM phosphate, pH 9.0 buffer during storage at 2° C. to 8° C. However, the optimal concentration for formation, biological activity and storage stability of these oligomeric species during storage was not determined. […] These cross-linked species were not disrupted in the presence of SDS, and therefore, the appropriate size distribution could be determined by SDS-PAGE. […]

PC-12 cells = experiment: PC-12 MTT reduction assay; format: cell-based; conditions: for MTT reduction: PC-12 cells
Procedure: PC-12 cells were plated at 30,000 cells/well and allowed to grow overnight at 37° C./5% CO2. Soluble Aβ oligomers or vehicle were added to cells at concentrations of 1 μM and 5 μM. After a four hour incubation at 37° C./5% CO2, the MTT reduction assay was performed (Lambert et al., 2001, J. Neurochem. 79, 595-605). Briefly, MTT (10 μL, 5 mg/mL) was added to each well and allowed to incubate for four hours. A solubilization buffer (100 μL, 10% SDS in 0.01 N HCl) was added and the plate was incubated at 37° C./5% CO2 overnight. The assay was then quantified at 595 nm on a Tecan Spectrafluor Plus plate reader (Tecan Systems, San Jose, Calif.).
In this experiment, Aβ42 was prepared at concentrations of 1 mM, 850 μM, 650 μM, 450 μM, 250 μM and 100 μM in 50 mM phosphate pH 9.0 buffer as described in the Example 8. After 7 days of incubation at 4° C., samples were tested by the MTT assay to determine bioactivity.

Row | Substance | oligomer formation ([1]; 400 μM in 50 mM phosphate, pH 9.0, 24 hour incubation at 4° C.) | MTT reduction (PC-12 cells; stock concentrations 450 μM to 650 μM in 50 mM phosphate pH 9.0, 7 days at 4° C., test concentration 5 μM, 4 h incubation) | MTT reduction (PC-12 cells; stock concentrations below 450 μM and above 650 μM in 50 mM phosphate pH 9.0, 7 days at 4° C., tested at 1 μM and 5 μM) | bioactivity after storage (PC-12 cells; stock concentrations of 450 μM to 650 μM in 50 mM phosphate, pH 9.0 buffer, storage at 2-8° C.) | storage stability of oligomeric (150 kDa) species ([1]; stock concentration 450 μM in 50 mM phosphate, pH 9.0 buffer, 1, 4 and 7 days at 4° C., 0.5% glutaraldehyde cross-linking)
1 | Aβ40: HFIP-dried Aβ40 monomer peptide, solubilized in DMSO and incubated in 50 mM phosphate, pH 9.0 [reference compound] | primarily stays monomeric and does not form oligomers |  |  |  | 
2 | Aβ peptide (1-42) [Aβ42] |  | about 55% | 80-105% | remain bioactive for up to seven days | can be stored for seven days at 4 °C
